US12642795B2, “MRGPRX2 antagonist for the treatment of pseudo allergic reactions” (The University of Hong Kong, priority 2021, dated 2026)

Legend:
MRGPRX2 = target: T1, MRGPRX2 (Homo sapiens, UniProt Q96LB1); assay: MRGPRX2 activation assay (PRESTO-Tango assay); format: cell-based; conditions: MRGPRX2-Tango transfected HTLA cells, followed by EC90 concentration (10 μM) of C48/80
T1 construct: expressed in transfected cells; host or cells: HTLA cells
T1 sequence (Q96LB1 1-330): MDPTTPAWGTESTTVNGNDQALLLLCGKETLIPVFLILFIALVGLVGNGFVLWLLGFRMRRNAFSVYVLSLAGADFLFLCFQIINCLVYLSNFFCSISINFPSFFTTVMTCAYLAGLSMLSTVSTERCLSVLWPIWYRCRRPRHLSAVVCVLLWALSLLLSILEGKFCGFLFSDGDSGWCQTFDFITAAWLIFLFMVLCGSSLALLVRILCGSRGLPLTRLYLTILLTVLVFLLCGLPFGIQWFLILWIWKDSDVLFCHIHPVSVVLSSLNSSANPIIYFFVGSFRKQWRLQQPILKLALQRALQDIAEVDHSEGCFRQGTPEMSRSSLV
Procedure: On day 1 of the experiment, HTLA cells were seeded at 1×10^6 cells per 100 mm cell culture dish for transfection. On the following day (day 2), HTLA cells were transfected with Tango MRGPRX2 DNA using the Lipofectamine transfection reagent (Thermo Fischer Scientific). On day 3, Tango MRGPRX2 transfected cells were transferred into 96-well white clear-bottom cell culture plates at a density of 2×10^4 cells/well/80 μL (PerkinElmer Life Science).

Human LAD-2 MCs = assay: Intracellular Ca2+ flux assay (Fluo-4 NW); format: cell-based; conditions: LAD2 MCs; for efficacy in Ca2+ flux reduction at 12.5 μM, 25 μM and 50 μM: ****P<0.0001 vs C48/80; for reduction of C48/80 induced Ca2+ flux: C48/80 EC90 concentration
Procedure: The intracellular Ca^2+ flux was measured in human LAD-2 MCs by using the Fluo-4 NW calcium assay kit and the protocol according to the manufacturer (Molecular Probe, Invitrogen, USA). Briefly, LAD-2 cells were plated in a 96-well black well plate (SPL Life Sciences) at a density of 1×10^5 cells/well/40 μL in assay buffer and incubated for 1 h at 37° C. incubators. After 1 h, 40 μL of the 2× dye loading solution and antagonist or buffer was added to the cells (10 μL of 10× stock). […] After one hour of incubation, a graded concentration of agonist or buffer was added to the cells (10 μL of 10× stock). The fluorescence was measured at an excitation wavelength of 494 nm and an emission wavelength of 516 nm using Victor 4× plate reader (PerkinElmer) for 150 seconds. The ΔF was calculated by […] and plotted by using Graph Pad Prism.

C57/BL/6N mice [1] = assay: In-vivo local anaphylaxis/pseudo allergic mice model (C48/80 induced); parameters: species or system mouse; conditions: 5 mg/kg intraperitoneally, vs C48/80 mice; for increase in paw thickness: 15 min after C48/80 (30 μg/ml) in paw; for Evans blue dye extravasation: 15 min after C48/80 (30 μg/ml)
Excerpt: Young adult male mice (C57/BL/6N aged 6-8 weeks old, n=6/group) were used to measure the local anaphylaxis activity by measuring Evans blue tissue extravasation in paw and ear tissue. The animal experiments were approved by the Committee on the Use of Live Animals in Teaching and Research (CULATR) (Animal ethical approval number CULATR 5125-19). Mice were anesthetized via intraperitoneal injection of ketamine and xylazine, and paw thickness was measure using a Vernier caliper. The antagonists (GE0117, GE1109, and GE1111) were injected at a dose of 5 mg/kg body weight via intraperitoneal injection followed by a tail vein injection of 50 μL 12.5% Evans blue in saline (irrespective of the bodyweight). After thirty minutes, C48/80 (10 μL of 30 μg/ml) was injected into one paw and ear, while saline was injected into the other paw and ear as a negative control. After fifteen minutes, the paw and ear tissue were photographed, and the paw thicknesses were measured again to calculate % increase in paw thickness. Mice were euthanized by cervical dislocation under anesthesia, and the collected paw and ear tissues were dried at 50° C. for 24 hours and weighed separately. Evans blue was extracted with formamide (500 μL/tissue) by incubating at 50° C. for 24 h. The supernatant was aliquoted into 96-well plates (200 μL/well, duplicate), and OD was measure at 595 nm using a Victor 4× plate reader (PerkinElmer). The paw edema/inflammation was measured as % increase in paw thickness=

C57/BL/6N mice [2] = assay: In-vivo systemic anaphylaxis mice model (C48/80 induced); parameters: species or system mouse; conditions: 5 mg/kg intraperitoneally, C48/80 8 mg/kg intraperitoneally
Procedure: Animals (C57/BL/6N aged 6-8 weeks old, n=6-8/group) were transported to the procedure area the day before injections to minimize stress. The antagonists (GE0117, GE1109, or GE1111) or vehicle was injected intraperitoneally, and mice were kept in the cage for 30 minutes. After 30 minutes of saline (negative control), 8 mg/kg of C48/80 was injected intraperitoneally. The volume of intraperitoneal injection was 10 ml/kg body weight as per AAALAC guidelines. The injection site was swabbed with cotton soaked in 70% alcohol, and the mouse was placed in a separate cage as one mouse per cage. Body core temperature was measured before (basal) and after the injections with an IR non-contact thermometer for one hour. Also, mice were monitored for anaphylaxis symptoms/severity and scored from 0-5 for 1 h or until death following C48/80 injection, whichever was first. Briefly, the scoring system was followed as 0, no symptoms; 1, scratching and rubbing around the nose and head; 2, puffiness around the eyes and mouth, diarrhea, pilar erecti, reduced activity, and/or decreased activity with an increased respiratory rate; 3, wheezing, labored respiration, and cyanosis around the mouth and the tail; 4, no activity after prodding or tremor and convulsion; 5, death. The body core temperature and anaphylaxis score were plotted using Graph Pad Prism.

mice ear tissue MCs = assay: Histological analysis of ear tissue (H&E, Toluidine blue; in-vivo MCs degranulation); parameters: species or system mouse; conditions: 5 mg/kg intraperitoneally, vs C48/80 treated group
Procedure: The mice were anesthetized with ketamine/xylazine and were injected with antagonists (GE0117, GE1109, and GE1111) at a dose of 5 mg/kg body weight intraperitoneally. After 30 minutes, C48/80 (10 μL of 30 μg/ml) and saline (as negative control) were injected into the ear. Fifteen minutes later, the mice were sacrificed, and the injection site of the ear was excised, washed with PBS, and fixed with 10% buffered formalin for 24 h. After 24 hours, the ear tissue was dehydrated in a graded concentration of ethanol (30%, 50% & 70% ethanol every 24 hours) at 4° C. Further, the tissue was processed in an automated tissue processor (Leica ASP300) and embedded into paraffin using Embedding Centre (Leica EG1150). The paraffin-embedded tissue was sectioned at […] size using a fully automatic Microtome (Leica RM2265). The tissue sections were subjected to H&E staining using an automated slide Stainer (Leica ST5020) using standard staining protocol. After staining, the slides were dried under a fume hood and mounted with DPX. For the MCs detection, the sectioned ear tissue was subjected to Toluidine blue O staining according to the available online protocol (http://www.ihcworld.com/_protocols/special_stains/toluidine_blue.htm). Images were captured under 10× and 20× magnification using a Nikon Eclipse Ni-U, upright microscope, and Nikon DS-Ri2 microscopic camera (Nikon, Tokyo, Japan).

Row | Structure (SMILES) | IC50 (MRGPRX2) [µM] | efficacy in Ca2+ flux reduction at 12.5 μM, 25 μM and 50 μM (Human LAD-2 MCs) | reduction of C48/80 induced Ca2+ flux (Human LAD-2 MCs) | increase in paw thickness (C57/BL/6N mice [1]) | Evans blue dye extravasation (C57/BL/6N mice [1]) | C48/80 induced body temperature change at 35 minutes (C57/BL/6N mice [2]) | C48/80 induced body temperature changes at 30 minutes (C57/BL/6N mice [2]) | percentage of degranulated MCs in ear tissue (mice ear tissue MCs) | systemic anaphylaxis symptoms (score 0-5) (C57/BL/6N mice [2]; 1 h)
1 | COC(=O)c1cc2cc(NC(N)=O)ccc2cc1-c1ccc2c3c(cccc13)C(=O)C=C2 [GE1109] | 7.14 | higher efficacy at all three concentrations | significant concentration-dependent reduction | significant (*P<0.05) antagonizing activity | significant (*P<0.05) antagonizing activity | significantly reversed the body temperature change | reversed the C48/80 induced body temperature changes | reduces the MCs degranulation | –
2 | COC(=O)c1cc2cc(NC(N)=O)ccc2cc1-c1cc2c3c(c(O)ccc3c1)C(C)C(C=O)=C2 (centres unmarked) [GE1111] | 9.42 | higher efficacy at all three concentrations | significant concentration-dependent reduction | significantly (***P<0.001) attenuated | significantly (***P<0.001) attenuated | significantly reversed the body temperature change | reversed the C48/80 induced body temperature changes | reduces the MCs degranulation | rehabilitated the compound 48/80 induced hypothermia and severity of anaphylaxis symptoms
